In patent US11000033B2, “Ketone or oxime compound, and herbicide” (NISSAN CHEMICAL CORPORATION, priority 2014, dated 2021):

How the values were obtained:
Format in all cases: in vivo
[1] = system: Galium spurium; experiment: Test Example 5: herbicidal effect by foliage application, plastic box (symbol Q); details: 320 g/ha, 3 weeks after application
In short: (§1)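 Leaf-applied emulsion, water-diluted to a preset herbicide dose, on two-week-old seedlings raised in a 25° C. to 30° C. greenhouse; injury rated at 3 weeks using earlier criteria.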

[2] = system: soybean; experiment: Test Example 4: effect on crop by soil treatment (symbol d); details: application herbicide amount 320 g/ha
In short: (§2)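 Crop seed is sown in spots together with several weed species in a box of sterilized diluvial soil. It is covered by about 1.5 cm of soil and kept in a greenhouse held between 25° C. and 30° C.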

[3] = system: Chenopodium album; experiment: Test Example 4: herbicidal effect by soil treatment (symbol O); details: application herbicide amount 320 g/ha
In short: (§3)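 Seeds were sown in sterilized diluvial soil, covered with about 1.5 cm of soil, and the soil surface was sprayed with a water-diluted emulsion of the compound at a predetermined rate. Plants grew in a greenhouse at 25° C. to 30° C.; effects were scored visually 3 weeks after application.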

[4] = system: soybean; experiment: Test Example 5: effect on crop by foliage application, plastic box (symbol d); details: 320 g/ha, 3 weeks after application
In short: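 Box culture: sterile diluvial soil, seeds spot-sown, ~1.5 cm cover, raised under glass at 25–30° C.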

[5] = system: Avena fatua; experiment: Test Example 4: herbicidal effect by soil treatment (symbol I); details: application herbicide amount 320 g/ha
In short: as §3

[6] = system: Echinochloa crus-galli var. crus-galli; experiment: Test Example 5: herbicidal effect by foliage application, plastic box (symbol H); details: 320 g/ha, 3 weeks after application
In short: as §1

[7] = system: Chenopodium album; experiment: Test Example 5: herbicidal effect by foliage application, plastic box (symbol O); details: 320 g/ha, 3 weeks after application
In short: as §1

[8] = system: Monochoria vaginalis; experiment: Test Example 1: herbicidal activity, application before weed generation in submerged conditions (symbol C); details: application herbicide amount 320 g/ha
In short: (§4)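 In a flooded pot test with alluvial soil, the emulsion-formulated compound was diluted with water to a predetermined amount and applied to the floodwater immediately on the sowing day. Pots were held in a greenhouse at 25–30 °C for 3 weeks before each weed was rated.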

[9] = system: Abutilon theophrasti; experiment: Test Example 5: herbicidal effect by foliage application, plastic box (symbol M); details: 320 g/ha, 3 weeks after application
In short: as §1

[10] = system: Amaranthus retroflexus; experiment: Test Example 4: herbicidal effect by soil treatment (symbol N); details: application herbicide amount 320 g/ha
In short: as §3

[11] = system: beet; experiment: Test Example 4: effect on crop by soil treatment (symbol f); details: application herbicide amount 320 g/ha
In short: as §2

[12] = system: Scirpus juncoides; experiment: Test Example 1: herbicidal activity, application before weed generation in submerged conditions (symbol B); details: application herbicide amount 320 g/ha
In short: as §4

[13] = system: Amaranthus retroflexus; experiment: Test Example 5: herbicidal effect by foliage application, plastic box (symbol N); details: 320 g/ha, 3 weeks after application
In short: as §1

[14] = system: Setaria viridis; experiment: Test Example 4: herbicidal effect by soil treatment (symbol G); details: application herbicide amount 320 g/ha
In short: as §3

[15] = system: wheat; experiment: Test Example 4: effect on crop by soil treatment (symbol e); details: application herbicide amount 320 g/ha
In short: as §2

[16] = system: Echinochloa crus-galli var. crus-galli; experiment: Test Example 3: herbicidal effect by foliage application, Wagner pot (symbol H); details: application herbicide amount 320 g/ha
In short: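 Post-emergence, paddy-type test: seedlings 14 d old in shallow-flooded (0.1–0.5 cm) alluvial soil, 25–30 °C greenhouse. Emulsion diluted to target rate, sprayed on leaves. Read-out: visual effect on each species at 3 weeks, per set criteria.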

[17] = system: Setaria viridis; experiment: Test Example 5: herbicidal effect by foliage application, plastic box (symbol G); details: 320 g/ha, 3 weeks after application
In short: as §1

[18] = system: Apera spica-venti; experiment: Test Example 4: herbicidal effect by soil treatment (symbol L); details: application herbicide amount 320 g/ha
In short: as §3

[19] = system: Lolium multiflorum Lam.; experiment: Test Example 4: herbicidal effect by soil treatment (symbol K); details: application herbicide amount 320 g/ha
In short: as §3

CON=C(C)CC1CC(O)=C(c2c(C)cc(Br)cc2C)C1=O (stereo not shown) [6-003]
Q: Galium spurium, herbicidal effect grade [1]: 3 (Herbicidal ratio of 40% or higher and lower than 70%) | d: soybean, effect on crop grade [2]: 0 (Herbicidal ratio of 5% or lower (almost no effect)) | O: Chenopodium album, herbicidal effect grade [3]: 0 (Herbicidal ratio of 5% or lower (almost no effect)) | d: soybean, effect on crop grade [4]: 3 (Herbicidal ratio of 40% or higher and lower than 70%) | I: Avena fatua, herbicidal effect grade [5]: 3 (Herbicidal ratio of 40% or higher and lower than 70%) | H: Echinochloa crus-galli var. crus-galli, herbicidal effect grade [6]: 5 (Herbicidal ratio of 90% or more (almost completely withered)) | O: Chenopodium album, herbicidal effect grade [7]: 1 (Herbicidal ratio of 5% or higher and lower than 20%) | Herbicidal effect grade, C: Monochoria vaginalis [8]: 1 (Herbicidal ratio of 5% or higher and lower than 20%) | M: Abutilon theophrasti, herbicidal effect grade [9]: 3 (Herbicidal ratio of 40% or higher and lower than 70%) | N: Amaranthus retroflexus, herbicidal effect grade [10]: 3 (Herbicidal ratio of 40% or higher and lower than 70%) | f: beet, effect on crop grade [11]: 0 (Herbicidal ratio of 5% or lower (almost no effect)) | Herbicidal effect grade, B: Scirpus juncoides [12]: 4 (Herbicidal ratio of 70% or higher and lower than 90%) | N: Amaranthus retroflexus, herbicidal effect grade [13]: 0 (Herbicidal ratio of 5% or lower (almost no effect)) | G: Setaria viridis, herbicidal effect grade [14]: 5 (Herbicidal ratio of 90% or more (almost completely withered)) | e: wheat, effect on crop grade [15]: 0 (Herbicidal ratio of 5% or lower (almost no effect)) | herbicidal effect on H (Echinochloa crus-galli var. crus-galli), grade 0-5 [16]: 5 (Herbicidal ratio of 90% or more (almost completely withered)) | G: Setaria viridis, herbicidal effect grade [17]: 5 (Herbicidal ratio of 90% or more (almost completely withered)) | L: Apera spica-venti, herbicidal effect grade [18]: 5 (Herbicidal ratio of 90% or more (almost completely withered)) | K: Lolium multiflorum Lam., herbicidal effect grade [19]: 5 (Herbicidal ratio of 90% or more (almost completely withered))

CCOC(=O)C(C(=O)c1ccccc1)C1CC(O)=C(c2c(C)cc(C)cc2C)C1=O (stereo not shown) [2-008]
Q: Galium spurium, herbicidal effect grade [1]: 0 (Herbicidal ratio of 5% or lower (almost no effect)) | d: soybean, effect on crop grade [2]: 0 (Herbicidal ratio of 5% or lower (almost no effect)) | O: Chenopodium album, herbicidal effect grade [3]: 0 (Herbicidal ratio of 5% or lower (almost no effect)) | d: soybean, effect on crop grade [4]: 1 (Herbicidal ratio of 5% or higher and lower than 20%) | I: Avena fatua, herbicidal effect grade [5]: 0 (Herbicidal ratio of 5% or lower (almost no effect)) | H: Echinochloa crus-galli var. crus-galli, herbicidal effect grade [6]: 3 (Herbicidal ratio of 40% or higher and lower than 70%) | O: Chenopodium album, herbicidal effect grade [7]: 0 (Herbicidal ratio of 5% or lower (almost no effect)) | Herbicidal effect grade, C: Monochoria vaginalis [8]: 0 (Herbicidal ratio of 5% or lower (almost no effect)) | M: Abutilon theophrasti, herbicidal effect grade [9]: 0 (Herbicidal ratio of 5% or lower (almost no effect)) | N: Amaranthus retroflexus, herbicidal effect grade [10]: 0 (Herbicidal ratio of 5% or lower (almost no effect)) | f: beet, effect on crop grade [11]: 0 (Herbicidal ratio of 5% or lower (almost no effect)) | Herbicidal effect grade, B: Scirpus juncoides [12]: 0 (Herbicidal ratio of 5% or lower (almost no effect)) | N: Amaranthus retroflexus, herbicidal effect grade [13]: 1 (Herbicidal ratio of 5% or higher and lower than 20%) | G: Setaria viridis, herbicidal effect grade [14]: 0 (Herbicidal ratio of 5% or lower (almost no effect)) | e: wheat, effect on crop grade [15]: 0 (Herbicidal ratio of 5% or lower (almost no effect)) | herbicidal effect on H (Echinochloa crus-galli var. crus-galli), grade 0-5 [16]: 0 (Herbicidal ratio of 5% or lower (almost no effect)) | G: Setaria viridis, herbicidal effect grade [17]: 3 (Herbicidal ratio of 40% or higher and lower than 70%) | L: Apera spica-venti, herbicidal effect grade [18]: 0 (Herbicidal ratio of 5% or lower (almost no effect)) | K: Lolium multiflorum Lam., herbicidal effect grade [19]: 3 (Herbicidal ratio of 40% or higher and lower than 70%)

CCc1cc(C)cc(C)c1C1=C(O)CC(CC(C)=NOC)C1=O (stereo not shown) [6-007]
Q: Galium spurium, herbicidal effect grade [1]: 0 (Herbicidal ratio of 5% or lower (almost no effect)) | d: soybean, effect on crop grade [2]: 0 (Herbicidal ratio of 5% or lower (almost no effect)) | O: Chenopodium album, herbicidal effect grade [3]: 0 (Herbicidal ratio of 5% or lower (almost no effect)) | d: soybean, effect on crop grade [4]: 2 (Herbicidal ratio of 20% or higher and lower than 40%) | I: Avena fatua, herbicidal effect grade [5]: 4 (Herbicidal ratio of 70% or higher and lower than 90%) | H: Echinochloa crus-galli var. crus-galli, herbicidal effect grade [6]: 5 (Herbicidal ratio of 90% or more (almost completely withered)) | O: Chenopodium album, herbicidal effect grade [7]: 0 (Herbicidal ratio of 5% or lower (almost no effect)) | Herbicidal effect grade, C: Monochoria vaginalis [8]: 1 (Herbicidal ratio of 5% or higher and lower than 20%) | M: Abutilon theophrasti, herbicidal effect grade [9]: 1 (Herbicidal ratio of 5% or higher and lower than 20%) | N: Amaranthus retroflexus, herbicidal effect grade [10]: 3 (Herbicidal ratio of 40% or higher and lower than 70%) | f: beet, effect on crop grade [11]: 0 (Herbicidal ratio of 5% or lower (almost no effect)) | Herbicidal effect grade, B: Scirpus juncoides [12]: 5 (Herbicidal ratio of 90% or more (almost completely withered)) | N: Amaranthus retroflexus, herbicidal effect grade [13]: 0 (Herbicidal ratio of 5% or lower (almost no effect)) | G: Setaria viridis, herbicidal effect grade [14]: 5 (Herbicidal ratio of 90% or more (almost completely withered)) | e: wheat, effect on crop grade [15]: 5 (Herbicidal ratio of 90% or more (almost completely withered)) | herbicidal effect on H (Echinochloa crus-galli var. crus-galli), grade 0-5 [16]: 5 (Herbicidal ratio of 90% or more (almost completely withered)) | G: Setaria viridis, herbicidal effect grade [17]: 5 (Herbicidal ratio of 90% or more (almost completely withered)) | L: Apera spica-venti, herbicidal effect grade [18]: 5 (Herbicidal ratio of 90% or more (almost completely withered)) | K: Lolium multiflorum Lam., herbicidal effect grade [19]: 5 (Herbicidal ratio of 90% or more (almost completely withered))

CCOC(=O)C(C(=O)C(F)(F)F)C1CC(O)=C(c2c(C)cc(C)cc2C)C1=O (stereo not shown) [2-010]
Q: Galium spurium, herbicidal effect grade [1]: 0 (Herbicidal ratio of 5% or lower (almost no effect)) | d: soybean, effect on crop grade [2]: 0 (Herbicidal ratio of 5% or lower (almost no effect)) | O: Chenopodium album, herbicidal effect grade [3]: 0 (Herbicidal ratio of 5% or lower (almost no effect)) | d: soybean, effect on crop grade [4]: 0 (Herbicidal ratio of 5% or lower (almost no effect)) | I: Avena fatua, herbicidal effect grade [5]: 0 (Herbicidal ratio of 5% or lower (almost no effect)) | H: Echinochloa crus-galli var. crus-galli, herbicidal effect grade [6]: 0 (Herbicidal ratio of 5% or lower (almost no effect)) | O: Chenopodium album, herbicidal effect grade [7]: 0 (Herbicidal ratio of 5% or lower (almost no effect)) | Herbicidal effect grade, C: Monochoria vaginalis [8]: 0 (Herbicidal ratio of 5% or lower (almost no effect)) | M: Abutilon theophrasti, herbicidal effect grade [9]: 0 (Herbicidal ratio of 5% or lower (almost no effect)) | N: Amaranthus retroflexus, herbicidal effect grade [10]: 0 (Herbicidal ratio of 5% or lower (almost no effect)) | f: beet, effect on crop grade [11]: 0 (Herbicidal ratio of 5% or lower (almost no effect)) | Herbicidal effect grade, B: Scirpus juncoides [12]: 0 (Herbicidal ratio of 5% or lower (almost no effect)) | N: Amaranthus retroflexus, herbicidal effect grade [13]: 0 (Herbicidal ratio of 5% or lower (almost no effect)) | G: Setaria viridis, herbicidal effect grade [14]: 0 (Herbicidal ratio of 5% or lower (almost no effect)) | e: wheat, effect on crop grade [15]: 0 (Herbicidal ratio of 5% or lower (almost no effect)) | herbicidal effect on H (Echinochloa crus-galli var. crus-galli), grade 0-5 [16]: 3 (Herbicidal ratio of 40% or higher and lower than 70%) | G: Setaria viridis, herbicidal effect grade [17]: 0 (Herbicidal ratio of 5% or lower (almost no effect)) | L: Apera spica-venti, herbicidal effect grade [18]: 0 (Herbicidal ratio of 5% or lower (almost no effect)) | K: Lolium multiflorum Lam., herbicidal effect grade [19]: 0 (Herbicidal ratio of 5% or lower (almost no effect))
